Assay [1] addresses Phosphatidylinositol 4,5-bisphosphate 3-kinase catalytic subunit beta isoform (Homo sapiens) (UniProt P42338). Put plainly: Selectivity interaction (Adapta Assay) EUB0001632a PIK3CB. Conditions: at 10 µM.
Assay [2] has as its target TGF-beta receptor type-2 (Homo sapiens) (UniProt P37173). Conditions: at 10 µM.
Assay [3] deals with Serine/threonine-protein kinase pim-1 (Homo sapiens, UniProt P11309). Conditions: at 10 µM.
In assay [4] the target is T1, Ephrin type-A receptor 3 (Homo sapiens) (UniProt P29320).
T1 sequence (whole entry): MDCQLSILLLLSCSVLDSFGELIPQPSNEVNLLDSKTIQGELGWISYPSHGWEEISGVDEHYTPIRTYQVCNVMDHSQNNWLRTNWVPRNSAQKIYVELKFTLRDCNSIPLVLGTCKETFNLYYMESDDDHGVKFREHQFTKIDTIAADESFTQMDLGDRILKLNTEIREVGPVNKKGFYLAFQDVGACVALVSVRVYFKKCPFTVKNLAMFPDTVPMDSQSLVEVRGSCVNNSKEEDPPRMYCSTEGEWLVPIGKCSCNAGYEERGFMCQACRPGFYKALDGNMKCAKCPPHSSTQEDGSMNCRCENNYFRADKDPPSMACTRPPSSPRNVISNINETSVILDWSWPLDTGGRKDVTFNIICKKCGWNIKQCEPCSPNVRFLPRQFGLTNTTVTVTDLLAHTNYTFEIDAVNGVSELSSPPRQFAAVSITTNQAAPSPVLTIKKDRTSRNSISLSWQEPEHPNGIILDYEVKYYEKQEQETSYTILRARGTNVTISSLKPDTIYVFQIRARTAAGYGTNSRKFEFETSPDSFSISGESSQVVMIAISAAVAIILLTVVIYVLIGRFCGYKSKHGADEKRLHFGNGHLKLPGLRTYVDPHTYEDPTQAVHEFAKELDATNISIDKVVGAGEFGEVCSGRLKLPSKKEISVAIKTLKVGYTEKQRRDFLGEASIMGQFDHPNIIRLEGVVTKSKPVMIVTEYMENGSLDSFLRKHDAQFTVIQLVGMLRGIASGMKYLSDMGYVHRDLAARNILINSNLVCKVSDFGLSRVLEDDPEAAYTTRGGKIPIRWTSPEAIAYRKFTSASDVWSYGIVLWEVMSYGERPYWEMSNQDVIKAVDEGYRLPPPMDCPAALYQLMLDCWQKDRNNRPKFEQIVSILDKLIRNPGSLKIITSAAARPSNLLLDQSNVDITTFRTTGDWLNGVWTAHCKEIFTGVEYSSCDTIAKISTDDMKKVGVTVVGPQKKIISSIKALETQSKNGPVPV
As to conditions: at 10 µM.

Assay [5] has as its target Cyclin-dependent kinase 14 (Homo sapiens) (UniProt O94921). Nature of the assay: Selectivity interaction (KinomeScan (DiscoverX)) EUB0000666a CDK14. As to conditions: at 10 µM.
Assay [6] addresses T2, Dual specificity mitogen-activated protein kinase kinase 6 (Homo sapiens) (UniProt P52564).
T2 sequence (whole entry): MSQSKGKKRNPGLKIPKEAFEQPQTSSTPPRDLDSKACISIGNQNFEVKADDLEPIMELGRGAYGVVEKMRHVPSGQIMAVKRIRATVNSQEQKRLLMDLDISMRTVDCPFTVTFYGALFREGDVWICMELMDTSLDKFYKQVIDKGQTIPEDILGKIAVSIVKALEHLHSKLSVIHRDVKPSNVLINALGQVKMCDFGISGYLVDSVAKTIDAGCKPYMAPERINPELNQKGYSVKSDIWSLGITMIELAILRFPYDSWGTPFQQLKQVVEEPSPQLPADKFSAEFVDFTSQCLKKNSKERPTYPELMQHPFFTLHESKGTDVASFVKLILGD
Nature of the assay: Selectivity interaction (ActivX KiNativ screen (kinase selectivity in THP-1 cell lysates)) EUB0000639a MAP2K6. Conditions: lysate. It counts as subcellular.

The target in assay [7] is Serine/threonine-protein kinase MARK1 (Homo sapiens) (UniProt Q9P0L2). Nature of the assay: Selectivity interaction (KinomeScan (DiscoverX)) EUB0001049a MARK1. Conditions: at 1 µM.
Assay [8] has as its target Tyrosine-protein kinase Lyn (Homo sapiens, UniProt P07948). Nature of the assay: Selectivity interaction (KinomeScan (DiscoverX)) EUB0000655a LYN. Conditions: at 10 µM.
The target of assay [9] is T3, cAMP-dependent protein kinase catalytic subunit PRKX (Homo sapiens) (UniProt P51817).
T3 sequence (whole entry): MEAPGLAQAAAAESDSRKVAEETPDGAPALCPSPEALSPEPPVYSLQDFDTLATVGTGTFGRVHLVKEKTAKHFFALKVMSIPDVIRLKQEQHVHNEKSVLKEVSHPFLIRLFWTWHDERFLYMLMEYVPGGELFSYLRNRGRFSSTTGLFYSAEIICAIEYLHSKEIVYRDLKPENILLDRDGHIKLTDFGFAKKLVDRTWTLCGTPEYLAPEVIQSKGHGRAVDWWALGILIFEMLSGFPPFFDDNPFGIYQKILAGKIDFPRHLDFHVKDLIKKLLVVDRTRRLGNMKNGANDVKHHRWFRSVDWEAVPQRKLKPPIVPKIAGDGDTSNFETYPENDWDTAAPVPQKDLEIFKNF
Nature of the assay: Selectivity interaction (KinomeScan (DiscoverX)) EUB0000092b PRKX. Conditions: at 10 µM.

Assay [10] addresses Serine/threonine-protein kinase 25 (Homo sapiens) (UniProt O00506). Put plainly: Selectivity interaction (KinomeScan (DiscoverX)) EUB0001079a STK25. Conditions: at 1 µM.
The target of assay [11] is Protein kinase C beta type (Homo sapiens, UniProt P05771). Nature of the assay: Selectivity interaction (Millipore kinase profiler) EUB0000124b PRKCB. As to conditions: at 10 µM.

The results in this text go back to ChEMBL document CHEMBL5465560, “Selectivity Literature for EUbOPEN Chemogenomic Library” (2024).

Molecules are shown by their SMILES.

Sequence of TGF-beta receptor type-2 (Homo sapiens) (P37173 whole entry): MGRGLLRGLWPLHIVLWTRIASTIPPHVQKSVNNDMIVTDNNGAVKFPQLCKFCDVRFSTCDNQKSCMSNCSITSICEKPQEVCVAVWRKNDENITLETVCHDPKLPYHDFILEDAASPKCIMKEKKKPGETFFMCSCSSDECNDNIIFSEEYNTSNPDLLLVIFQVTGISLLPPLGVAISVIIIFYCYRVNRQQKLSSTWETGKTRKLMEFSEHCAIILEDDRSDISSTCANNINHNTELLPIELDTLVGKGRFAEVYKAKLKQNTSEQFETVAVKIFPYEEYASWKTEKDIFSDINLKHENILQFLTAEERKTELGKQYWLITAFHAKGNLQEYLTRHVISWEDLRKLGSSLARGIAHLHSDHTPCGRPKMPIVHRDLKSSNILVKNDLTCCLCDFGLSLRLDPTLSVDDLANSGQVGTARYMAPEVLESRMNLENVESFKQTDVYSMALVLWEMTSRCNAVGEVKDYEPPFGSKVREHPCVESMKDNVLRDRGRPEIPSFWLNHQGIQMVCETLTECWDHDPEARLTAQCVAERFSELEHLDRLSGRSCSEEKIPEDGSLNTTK
Sequence of Protein kinase C beta type (P05771 2-671 limits assumed): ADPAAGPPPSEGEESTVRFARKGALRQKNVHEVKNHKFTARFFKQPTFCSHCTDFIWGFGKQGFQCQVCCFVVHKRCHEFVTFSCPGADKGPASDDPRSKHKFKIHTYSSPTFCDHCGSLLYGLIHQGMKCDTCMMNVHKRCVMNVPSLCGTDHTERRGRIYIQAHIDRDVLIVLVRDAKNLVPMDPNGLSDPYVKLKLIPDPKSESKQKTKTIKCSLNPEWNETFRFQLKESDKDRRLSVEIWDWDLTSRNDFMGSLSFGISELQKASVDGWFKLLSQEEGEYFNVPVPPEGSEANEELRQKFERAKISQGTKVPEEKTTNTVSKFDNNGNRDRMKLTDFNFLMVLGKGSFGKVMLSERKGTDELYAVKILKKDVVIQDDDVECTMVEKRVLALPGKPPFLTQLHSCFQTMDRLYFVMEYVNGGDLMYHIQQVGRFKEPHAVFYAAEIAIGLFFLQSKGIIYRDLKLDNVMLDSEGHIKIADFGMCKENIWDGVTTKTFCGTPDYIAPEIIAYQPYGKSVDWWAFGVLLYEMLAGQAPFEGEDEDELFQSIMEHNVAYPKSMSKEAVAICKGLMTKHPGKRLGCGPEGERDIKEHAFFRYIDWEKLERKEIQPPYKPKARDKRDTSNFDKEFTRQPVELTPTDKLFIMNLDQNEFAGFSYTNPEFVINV
Sequence of Phosphatidylinositol 4,5-bisphosphate 3-kinase catalytic subunit beta isoform (Homo sapiens) (P42338 whole entry, looked up, canonical isoform): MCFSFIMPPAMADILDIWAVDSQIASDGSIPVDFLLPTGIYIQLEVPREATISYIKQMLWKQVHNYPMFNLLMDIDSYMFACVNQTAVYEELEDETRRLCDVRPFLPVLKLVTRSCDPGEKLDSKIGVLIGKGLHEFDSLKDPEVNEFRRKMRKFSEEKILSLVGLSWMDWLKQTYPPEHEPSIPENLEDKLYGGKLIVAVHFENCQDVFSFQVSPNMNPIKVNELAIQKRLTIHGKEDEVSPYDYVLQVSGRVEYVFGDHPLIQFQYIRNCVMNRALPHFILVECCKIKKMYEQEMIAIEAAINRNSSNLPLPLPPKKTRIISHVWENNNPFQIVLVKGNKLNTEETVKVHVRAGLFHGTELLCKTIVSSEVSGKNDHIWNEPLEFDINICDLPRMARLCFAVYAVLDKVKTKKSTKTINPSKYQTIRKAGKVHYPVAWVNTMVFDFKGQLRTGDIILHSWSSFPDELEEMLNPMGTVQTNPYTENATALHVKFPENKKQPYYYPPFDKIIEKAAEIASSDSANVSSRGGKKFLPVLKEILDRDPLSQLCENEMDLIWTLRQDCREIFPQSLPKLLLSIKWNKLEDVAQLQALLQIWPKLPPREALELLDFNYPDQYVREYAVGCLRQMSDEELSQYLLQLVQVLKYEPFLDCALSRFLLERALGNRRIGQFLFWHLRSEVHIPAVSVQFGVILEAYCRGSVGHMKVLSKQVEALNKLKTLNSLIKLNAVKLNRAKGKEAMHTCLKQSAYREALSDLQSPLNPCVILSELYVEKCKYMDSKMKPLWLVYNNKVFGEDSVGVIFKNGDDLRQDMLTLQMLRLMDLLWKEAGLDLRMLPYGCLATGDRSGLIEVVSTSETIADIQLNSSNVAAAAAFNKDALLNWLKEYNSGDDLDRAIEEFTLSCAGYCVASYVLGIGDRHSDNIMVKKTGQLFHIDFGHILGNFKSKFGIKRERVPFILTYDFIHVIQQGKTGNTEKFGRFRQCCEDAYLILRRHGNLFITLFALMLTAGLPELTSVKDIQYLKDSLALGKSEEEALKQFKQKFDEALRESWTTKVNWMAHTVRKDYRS
Sequence of Serine/threonine-protein kinase MARK1 (Homo sapiens) (Q9P0L2 whole entry, looked up): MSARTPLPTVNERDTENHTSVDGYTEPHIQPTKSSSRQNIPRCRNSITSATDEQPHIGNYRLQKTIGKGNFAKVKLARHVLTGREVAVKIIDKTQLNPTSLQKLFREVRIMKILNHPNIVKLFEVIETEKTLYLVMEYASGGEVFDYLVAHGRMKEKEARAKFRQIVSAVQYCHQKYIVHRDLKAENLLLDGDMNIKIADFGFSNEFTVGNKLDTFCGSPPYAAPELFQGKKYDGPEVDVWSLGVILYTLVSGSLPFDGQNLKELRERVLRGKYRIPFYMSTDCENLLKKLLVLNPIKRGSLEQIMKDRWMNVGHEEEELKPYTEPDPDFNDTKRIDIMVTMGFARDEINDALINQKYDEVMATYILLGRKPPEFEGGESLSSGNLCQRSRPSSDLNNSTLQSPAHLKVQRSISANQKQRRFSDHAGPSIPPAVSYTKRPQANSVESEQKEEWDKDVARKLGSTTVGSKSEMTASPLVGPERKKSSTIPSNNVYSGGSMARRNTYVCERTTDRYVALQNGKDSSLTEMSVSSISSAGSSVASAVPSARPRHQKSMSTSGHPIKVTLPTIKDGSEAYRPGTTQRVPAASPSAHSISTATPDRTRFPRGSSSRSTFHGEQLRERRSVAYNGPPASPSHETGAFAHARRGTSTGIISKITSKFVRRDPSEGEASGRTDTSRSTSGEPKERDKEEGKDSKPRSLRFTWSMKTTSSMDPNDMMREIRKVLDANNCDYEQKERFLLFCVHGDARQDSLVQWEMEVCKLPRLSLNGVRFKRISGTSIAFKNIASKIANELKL
Sequence of Cyclin-dependent kinase 14 (Homo sapiens) (O94921 whole entry): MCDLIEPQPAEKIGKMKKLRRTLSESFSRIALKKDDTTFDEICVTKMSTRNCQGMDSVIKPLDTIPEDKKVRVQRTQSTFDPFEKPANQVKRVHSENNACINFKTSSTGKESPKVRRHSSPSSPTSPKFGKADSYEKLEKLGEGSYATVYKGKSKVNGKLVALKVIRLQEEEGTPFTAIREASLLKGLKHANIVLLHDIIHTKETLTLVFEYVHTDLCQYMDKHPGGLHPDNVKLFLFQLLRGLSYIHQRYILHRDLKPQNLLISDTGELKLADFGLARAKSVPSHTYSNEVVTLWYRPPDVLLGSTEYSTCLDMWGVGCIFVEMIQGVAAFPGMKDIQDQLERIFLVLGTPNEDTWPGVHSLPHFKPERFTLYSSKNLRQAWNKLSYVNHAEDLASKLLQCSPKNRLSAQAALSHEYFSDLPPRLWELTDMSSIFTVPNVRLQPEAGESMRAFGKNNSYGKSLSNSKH
Sequence of Tyrosine-protein kinase Lyn (P07948 2-512 limits assumed): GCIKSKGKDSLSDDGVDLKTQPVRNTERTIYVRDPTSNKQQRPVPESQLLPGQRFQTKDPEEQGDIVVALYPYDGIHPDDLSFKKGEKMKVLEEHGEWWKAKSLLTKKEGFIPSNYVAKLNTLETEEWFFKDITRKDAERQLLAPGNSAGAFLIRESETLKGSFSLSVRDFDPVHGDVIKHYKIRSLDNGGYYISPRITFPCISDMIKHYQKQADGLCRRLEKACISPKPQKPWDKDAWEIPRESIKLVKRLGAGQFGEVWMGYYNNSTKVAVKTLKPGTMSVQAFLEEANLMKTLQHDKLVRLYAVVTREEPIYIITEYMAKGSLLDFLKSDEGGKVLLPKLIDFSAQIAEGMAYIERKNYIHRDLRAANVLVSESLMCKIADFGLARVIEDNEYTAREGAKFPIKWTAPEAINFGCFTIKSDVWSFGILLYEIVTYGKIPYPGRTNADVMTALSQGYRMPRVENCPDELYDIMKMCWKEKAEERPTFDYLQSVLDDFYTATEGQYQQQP
Sequence of Serine/threonine-protein kinase pim-1 (P11309 whole entry, looked up): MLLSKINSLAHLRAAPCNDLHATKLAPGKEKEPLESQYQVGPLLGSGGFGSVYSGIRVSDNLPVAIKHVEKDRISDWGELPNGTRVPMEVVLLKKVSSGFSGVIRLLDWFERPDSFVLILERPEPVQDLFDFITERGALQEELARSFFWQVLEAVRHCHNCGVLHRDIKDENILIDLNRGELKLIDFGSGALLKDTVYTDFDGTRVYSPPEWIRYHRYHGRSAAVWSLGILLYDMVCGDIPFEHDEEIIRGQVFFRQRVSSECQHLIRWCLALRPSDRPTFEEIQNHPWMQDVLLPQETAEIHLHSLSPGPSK
Sequence of Serine/threonine-protein kinase 25 (Homo sapiens) (O00506 whole entry, looked up): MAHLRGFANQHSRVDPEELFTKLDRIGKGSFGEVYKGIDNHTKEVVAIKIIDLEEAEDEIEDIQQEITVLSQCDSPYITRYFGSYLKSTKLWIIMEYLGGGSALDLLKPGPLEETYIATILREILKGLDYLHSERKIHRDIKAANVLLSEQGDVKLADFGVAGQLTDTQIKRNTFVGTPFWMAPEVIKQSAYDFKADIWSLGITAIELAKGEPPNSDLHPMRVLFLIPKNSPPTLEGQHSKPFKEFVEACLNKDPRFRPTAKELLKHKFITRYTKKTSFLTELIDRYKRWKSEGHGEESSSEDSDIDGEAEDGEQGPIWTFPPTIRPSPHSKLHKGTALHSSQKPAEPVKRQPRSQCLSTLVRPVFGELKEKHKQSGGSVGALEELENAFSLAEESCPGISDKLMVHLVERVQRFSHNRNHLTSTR

On to `Cn1cc(-n2cnc3c(NCc4nc5cc(Cl)c(Cl)cc5[nH]4)nc(N4CCOCC4)nc32)cn1`, for which the % of inhibition in assay [1] is -11.2%.

`COCC(=O)NC/C=C/c1ccc2ncnc(Nc3ccc(Oc4ccc(C)nc4)c(C)c3)c2c1` [CP-724714] yielded a % of control in assay [2] of 94%.

For `CCN(CC)CCCCNc1ncc2cc(-c3cc(OC)cc(OC)c3)c(NC(=O)NC(C)(C)C)nc2n1`, the % of control in assay [3] and in assay [4] was 100% throughout.

In turn, `O=C(NOC[C@H](O)CO)c1ccc(F)c(F)c1Nc1ccc(I)cc1F` registered a % of control in assay [5] of 100%.

For `CC[C@@H]1[C@H](F)C(=O)N[C@@H]1COc1nccc2cc(C(N)=O)c(OC)cc12` [ZIMLOVISERTIB], the % of inhibition in [6] (at 0.01 µM) was 10.3%; in [6] (at 0.04 µM), -4.9%; in assay [6] (at 0.2 µM), -20.6%; in [6] (at 1 µM) it was 17.5%; in assay [6] (at 5 µM) it was 62.3%.

The compound `COc1cc(Nc2nc(C)cc(-c3cnn4nc(OC)ccc34)n2)cc(C(F)(F)F)c1` returned a % of control in assay [7] of 98%.

In the case of `CN(C)CCOc1ccc(-c2nc(-c3ccncc3)c(-c3ccc4c(c3)CC/C4=N\O)[nH]2)cc1`, the % of control in assay [8] came to 86%.

`CCC(=O)N1CCN(c2ccc(-n3c(=O)ccc4cnc5ccc(-c6cnc7ccccc7c6)cc5c43)cc2C(F)(F)F)CC1`: the % of control in [9] turned out to be 83%.

For `Nc1cnc(N2CCc3cc(S(=O)(=O)Nc4c(F)cc(Cl)cc4F)cc(N4CCCC4=O)c32)nc1` [TP-020n], the % of control in assay [10] came to 88%.

In assay [11], `CC(=O)Nc1cccc(-n2c(=O)n(C3CC3)c(=O)c3c(Nc4ccc(I)cc4F)n(C)c(=O)c(C)c32)c1` returned a % of control of 102%.
